Test results: PubChem BioAssay AID248 (DTP/NCI, 2004)
“And” between values parts separate entries of the source, which are not always exact repeats. Equal values may be shown once. Inconclusive results and toxic doses are left out.

Tested on: L1210 leukemia ip in BDF1 mice, survival T/C
Experiment: NCI In Vivo Anticancer Drug Screen. Data for tumor model L1210 Leukemia (intraperitoneal) in B6D2F1 (BDF1) mice
Settings: endpoint: mean survival time, higher = longer survival
In short: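 Transplanted-tumor mice were given test agent; controls received vehicle only. Survival readings from the two groups were divided (treated over control).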

[1] = dose: 100.0 mg/kg/injection, schedule: Q01DX001 (ip), vehicle: saline
[2] = dose: 200.0 mg/kg/injection, schedule: Q01DX001 (ip), vehicle: saline
[3] = dose: 60.0 mg/kg/injection, schedule: Q01DX Z (ip), vehicle: carboxymethylcellulose (CMC)
[4] = dose: 120.0 mg/kg/injection, schedule: Q01DX Z (ip), vehicle: carboxymethylcellulose (CMC)
[5] = dose: 240.0 mg/kg/injection, schedule: Q01DX Z (ip), vehicle: carboxymethylcellulose (CMC)
[6] = dose: 100.0 mg/kg/injection, schedule: Q04DX002 (ip), vehicle: saline with Tween-80
[7] = dose: 200.0 mg/kg/injection, schedule: Q04DX002 (ip), vehicle: saline with Tween-80
[8] = dose: 400.0 mg/kg/injection, schedule: Q04DX002 (ip), vehicle: saline with Tween-80
[9] = dose: 75.0 mg/kg/injection, schedule: Q01DX001 (ip), vehicle: saline
[10] = dose: 50.0 mg/kg/injection, schedule: Q01DX009 (ip), vehicle: Klucel (hydroxypropylcellulose) (HPC)
[11] = dose: 100.0 mg/kg/injection, schedule: Q01DX009 (ip), vehicle: Klucel (hydroxypropylcellulose) (HPC)

SMILES: CN(Cc1ccccc1)c1ccc(SC#N)cc1
- T/C [1]: 98 % of control
- T/C [2]: 104 % of control

SMILES: CN(C)/C=C1\CCOC1=O
- T/C (dose: 100.0 mg/kg/injection, schedule: Q04DX002 (ip), vehicle: saline): 101 % of control
- T/C (dose: 200.0 mg/kg/injection, schedule: Q04DX002 (ip), vehicle: saline): 119 % of control

SMILES: Cc1[nH]ccc2c(C)c3nc4c5ccccc5ccc4c3cc12
- T/C [3]: 98 % of control
- T/C [4]: 98 % of control
- T/C [5]: 90 % of control

SMILES: Cc1ccc(C(C)C)c2cc(C=O)c(O)cc12
- T/C (dose: 100.0 mg/kg/injection, schedule: Q01DX001 (sc), vehicle: olive oil, sesame oil, peanut oil): 95 % of control
- T/C (dose: 200.0 mg/kg/injection, schedule: Q01DX001 (sc), vehicle: olive oil, sesame oil, peanut oil): 109 % of control
- T/C (dose: 400.0 mg/kg/injection, schedule: Q01DX001 (sc), vehicle: olive oil, sesame oil, peanut oil): 101 % of control

SMILES: CCC1(CC)CC1(Cl)Cl
- T/C (dose: 75.0 mg/kg/injection, schedule: Q01DX001 (ip), vehicle: acetone): 108 % of control
- T/C (dose: 150.0 mg/kg/injection, schedule: Q01DX001 (ip), vehicle: acetone): 101 % of control

SMILES: CCCCCCCCCCC[CH2][Sn]([Cl])([CH2]CCCCCCCCCCC)[CH2]CCCCCCCCCCC
- T/C [6]: 96 % of control
- T/C [7]: 96 % of control
- T/C [8]: 93 % of control

SMILES: COC(=O)Cc1cc(Cl)c2cc(C)ccc2n1
- T/C (dose: 100.0 mg/kg/injection, schedule: Q01DX001 (ip), vehicle: other): 95 % of control
- T/C (dose: 200.0 mg/kg/injection, schedule: Q01DX001 (ip), vehicle: other): 98 % of control
- T/C (dose: 400.0 mg/kg/injection, schedule: Q01DX001 (ip), vehicle: other): 96 % of control

SMILES: Cc1ccc(NCC(O)CN2CCCCC2)cc1 (stereo not given)
- T/C (dose: 10.0 mg/kg/injection, schedule: Q01DX009 (ip), vehicle: other): 104 % of control
- T/C (dose: 20.0 mg/kg/injection, schedule: Q01DX009 (ip), vehicle: other): 98 % of control
- T/C (dose: 40.0 mg/kg/injection, schedule: Q01DX009 (ip), vehicle: other): 92 % of control

SMILES: Cc1ccccc1S(=O)(=O)Cc1cc(Cl)cc(Cl)c1O
- T/C [1]: 90 % of control
- T/C [2]: 88 % of control
- T/C (dose: 400.0 mg/kg/injection, schedule: Q01DX001 (ip), vehicle: saline): 97 % of control

SMILES: O=C1c2ccccc2-c2cccc3ccc(Cc4ccccc4)c1c23
- T/C (dose: 100.0 mg/kg/injection, schedule: Q01DX001 (ip), vehicle: saline with Tween-80): 88 % of control
- T/C (dose: 200.0 mg/kg/injection, schedule: Q01DX001 (ip), vehicle: saline with Tween-80): 92 % of control

SMILES: O=[N+]([O-])c1ccc(N/N=C/c2ccccc2)cc1
- T/C (dose: 15.0 mg/kg/injection, schedule: Q01DX Z (ip), vehicle: carboxymethylcellulose (CMC)): 91 % of control
- T/C (dose: 30.0 mg/kg/injection, schedule: Q01DX Z (ip), vehicle: carboxymethylcellulose (CMC)): 100 % of control
- T/C [3]: 94 % of control and 100 % of control
- T/C [4]: 94 % of control and 97 % of control
- T/C [5]: 97 % of control
- T/C (dose: 480.0 mg/kg/injection, schedule: Q01DX Z (ip), vehicle: carboxymethylcellulose (CMC)): 100 % of control

SMILES: O=C(CBr)c1ccc(S(=O)(=O)c2ccccc2)cc1
- T/C (dose: 5.0 mg/kg/injection, schedule: Q01DX001 (ip), vehicle: carboxymethylcellulose (CMC)): 93 % of control
- T/C (dose: 10.0 mg/kg/injection, schedule: Q01DX001 (ip), vehicle: carboxymethylcellulose (CMC)): 93 % of control
- T/C (dose: 20.0 mg/kg/injection, schedule: Q01DX001 (ip), vehicle: carboxymethylcellulose (CMC)): 95 % of control

SMILES: O=[N+]([O-])/C=C/c1cccc2ccccc12
- T/C [9]: 94 % of control
- T/C (dose: 150.0 mg/kg/injection, schedule: Q01DX001 (ip), vehicle: saline): 94 % of control
- T/C (dose: 300.0 mg/kg/injection, schedule: Q01DX001 (ip), vehicle: saline): 101 % of control

SMILES: CC(C)(N)CNC(C)(C)CO
- T/C (dose: 50.0 mg/kg/injection, schedule: Q01DX009 (ip), vehicle: saline): 102 % of control
- T/C (dose: 100.0 mg/kg/injection, schedule: Q01DX009 (ip), vehicle: saline): 102 % of control

SMILES: CCCCNC(=O)Nc1ccc(O)c(C(=O)O)c1
- T/C (dose: 25.0 mg/kg/injection, schedule: Q01DX009 (ip), vehicle: Klucel (hydroxypropylcellulose) (HPC)): 110 % of control
- T/C [10]: 93 % of control
- T/C [11]: 100 % of control

SMILES: CCOC(=O)C(C#N)S(C)(=O)=O (stereo not given)
- T/C [1]: 89 % of control
- T/C [2]: 95 % of control

SMILES: CCOC(=O)c1cc2cc([N+](=O)[O-])ccc2oc1=O
- T/C (dose: 100.0 mg/kg/injection, schedule: Q04DX003 (ip), vehicle: Klucel (hydroxypropylcellulose) (HPC)): 93 % of control
- T/C (dose: 200.0 mg/kg/injection, schedule: Q04DX003 (ip), vehicle: Klucel (hydroxypropylcellulose) (HPC)): 93 % of control
- T/C (dose: 400.0 mg/kg/injection, schedule: Q04DX003 (ip), vehicle: Klucel (hydroxypropylcellulose) (HPC)): 94 % of control

SMILES: CP(=O)(CCP(=O)(c1ccccc1)c1ccccc1)c1ccccc1 (stereo not given)
- T/C (dose: 25.0 mg/kg/injection, schedule: Q04DX002 (ip), vehicle: saline with Tween-80): 94 % of control
- T/C (dose: 50.0 mg/kg/injection, schedule: Q04DX002 (ip), vehicle: saline with Tween-80): 106 % of control
- T/C [6]: 97 % of control

SMILES: Nc1ncnc2c1ncn2C1OC(C(=O)O)C(O)C1O (stereo not given)
- T/C (dose: 100.0 mg/kg/injection, schedule: Q01DX005 (ip), vehicle: saline): 107 % of control
- T/C (dose: 200.0 mg/kg/injection, schedule: Q01DX005 (ip), vehicle: saline): 101 % of control

SMILES: CC1CCC/C(=N/Nc2ccc3ccccc3n2)C1 (stereo not given)
- T/C [9]: 113 % of control

SMILES: Nc1nc(N)c(-c2ccc(Cl)c(Cl)c2)c(COc2ccc(NC(=O)Nc3ccc(S(=O)(=O)F)c(Cl)c3)c(Cl)c2)n1
- T/C (dose: 75.0 mg/kg/injection, schedule: Q01DX001 (ip), vehicle: saline with Tween-80): 90 % of control
- T/C (dose: 150.0 mg/kg/injection, schedule: Q01DX001 (ip), vehicle: saline with Tween-80): 98 % of control

SMILES: Cc1c2c(ccc3ccccc32)cc2cccc[n+]12
- T/C (dose: 2.0 mg/kg/injection, schedule: Q01DX Z (ip), vehicle: saline): 101 % of control
- T/C (dose: 4.0 mg/kg/injection, schedule: Q01DX Z (ip), vehicle: saline): 116 % of control

SMILES: O=C(COc1ccccc1C(=O)O)Nc1ccccc1
- T/C (dose: 25.0 mg/kg/injection, schedule: Q04DX002 (ip), vehicle: Klucel (hydroxypropylcellulose) (HPC)): 114 % of control
- T/C (dose: 50.0 mg/kg/injection, schedule: Q04DX002 (ip), vehicle: Klucel (hydroxypropylcellulose) (HPC)): 92 % of control
- T/C (dose: 100.0 mg/kg/injection, schedule: Q04DX002 (ip), vehicle: Klucel (hydroxypropylcellulose) (HPC)): 96 % of control

SMILES: NC(Cc1ccccc1Cl)C(=O)O (stereo not given)
- T/C [10]: 102 % of control
- T/C (dose: 75.0 mg/kg/injection, schedule: Q01DX001 (ip), vehicle: Klucel (hydroxypropylcellulose) (HPC)): 86 % of control
- T/C [11]: 102 % of control
- T/C (dose: 150.0 mg/kg/injection, schedule: Q01DX001 (ip), vehicle: Klucel (hydroxypropylcellulose) (HPC)): 99 % of control
- T/C (dose: 200.0 mg/kg/injection, schedule: Q01DX009 (ip), vehicle: Klucel (hydroxypropylcellulose) (HPC)): 102 % of control
- T/C (dose: 300.0 mg/kg/injection, schedule: Q01DX001 (ip), vehicle: Klucel (hydroxypropylcellulose) (HPC)): 96 % of control

SMILES: O=C(c1ccc(-c2ccccc2)cc1)C1CC1c1ccccc1 (stereo not given)
- T/C (dose: 100.0 mg/kg/injection, schedule: Q01DX009 (ip), vehicle: saline sonified): 97 % of control
- T/C (dose: 200.0 mg/kg/injection, schedule: Q01DX009 (ip), vehicle: saline sonified): 96 % of control
- T/C (dose: 400.0 mg/kg/injection, schedule: Q01DX009 (ip), vehicle: saline sonified): 91 % of control

SMILES: O=C(COc1ccc([N+](=O)[O-])cc1)OCCN1CCOCC1
- T/C (dose: 100.0 mg/kg/injection, schedule: Q01DX001 (ip), vehicle: carboxymethylcellulose (CMC)): 92 % of control
- T/C (dose: 200.0 mg/kg/injection, schedule: Q01DX001 (ip), vehicle: carboxymethylcellulose (CMC)): 111 % of control
- T/C (dose: 400.0 mg/kg/injection, schedule: Q01DX001 (ip), vehicle: carboxymethylcellulose (CMC)): 101 % of control

SMILES: CCCCCCCCCCCCCCSCCO
- T/C (dose: 100.0 mg/kg/injection, schedule: Q01DX009 (ip), vehicle: carboxymethylcellulose (CMC)): 103 % of control
- T/C (dose: 200.0 mg/kg/injection, schedule: Q01DX009 (ip), vehicle: carboxymethylcellulose (CMC)): 102 % of control

SMILES: CC(=O)c1cc(C)c(O)cc1C
- T/C [6]: 103 % of control
- T/C [7]: 92 % of control
- T/C [8]: 111 % of control

SMILES: COC(=O)c1cc(N2CC2)nc(Cl)n1
- T/C (dose: 25.0 mg/kg/injection, schedule: Q01DX Z (ip), vehicle: methylcellulose (MC)): 101 % of control
- T/C (dose: 50.0 mg/kg/injection, schedule: Q01DX Z (ip), vehicle: methylcellulose (MC)): 93 % of control
